Assay results from PubChem BioAssay AID248 (DTP/NCI, 2004).
Values joined by “and” are separate entries in the source; they are usually repeats but may differ in a detail not shown here. Identical values can stand only once. Inconclusive results and toxic doses are left out. No stated cut-off is given here; in the data, active means T/C of 150% or more; inactive means T/C below 125%.

System: L1210 leukemia ip in BDF1 mice, survival T/C
Experiment: NCI In Vivo Anticancer Drug Screen. Data for tumor model L1210 Leukemia (intraperitoneal) in B6D2F1 (BDF1) mice
Details: endpoint: mean survival time, higher = longer survival
In short: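 Mice bearing the transplanted tumor received compound or vehicle. Survival of the treated group was divided by that of the vehicle-treated control group to give the ratio.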

[1] = dose: 100.0 mg/kg/injection, schedule: Q04DX003 (ip), vehicle: saline
[2] = dose: 200.0 mg/kg/injection, schedule: Q04DX003 (ip), vehicle: saline
[3] = dose: 400.0 mg/kg/injection, schedule: Q04DX003 (ip), vehicle: saline

Measured: T/C

CCOC(=O)/C(C)=N\Nc1ccc([N+](=O)[O-])cc1
inactive: dose: 50.0 mg/kg/injection, schedule: Q01DX001 (ip), vehicle: carboxymethylcellulose (CMC) 92 % of control | dose: 100.0 mg/kg/injection, schedule: Q01DX001 (ip), vehicle: carboxymethylcellulose (CMC) 90 % of control | dose: 200.0 mg/kg/injection, schedule: Q01DX001 (ip), vehicle: carboxymethylcellulose (CMC) 92 % of control | dose: 400.0 mg/kg/injection, schedule: Q01DX001 (ip), vehicle: carboxymethylcellulose (CMC) 103 % of control

COc1ccc2c(c1)sc(=N)n2C
inactive: dose: 100.0 mg/kg/injection, schedule: Q04DX002 (ip), vehicle: saline 97 % of control | dose: 200.0 mg/kg/injection, schedule: Q04DX002 (ip), vehicle: saline 93 % of control

CCN(CC)Cc1ccccc1COC(=O)c1ccc([N+](=O)[O-])cc1
inactive: dose: 100.0 mg/kg/injection, schedule: Q04DX002 (ip), vehicle: Klucel (hydroxypropylcellulose) (HPC) 97 % of control | dose: 200.0 mg/kg/injection, schedule: Q04DX002 (ip), vehicle: Klucel (hydroxypropylcellulose) (HPC) 94 % of control | dose: 400.0 mg/kg/injection, schedule: Q04DX002 (ip), vehicle: Klucel (hydroxypropylcellulose) (HPC) 101 % of control

Cc1nc2ncnc(NCc3ccc(Cl)cc3Cl)c2[nH]1
inactive: dose: 100.0 mg/kg/injection, schedule: Q01DX001 (ip), vehicle: saline 97 % of control | dose: 200.0 mg/kg/injection, schedule: Q01DX001 (ip), vehicle: saline 89 % of control | dose: 400.0 mg/kg/injection, schedule: Q01DX001 (ip), vehicle: saline 108 % of control

C[N+](C)(C)CC(O)CC#N (centres undefined)
inactive: dose: 12.5 mg/kg/injection, schedule: Q01DX009 (ip), vehicle: Klucel (hydroxypropylcellulose) (HPC) 98 % of control | dose: 25.0 mg/kg/injection, schedule: Q01DX009 (ip), vehicle: Klucel (hydroxypropylcellulose) (HPC) 96 % of control | dose: 50.0 mg/kg/injection, schedule: Q01DX009 (ip), vehicle: Klucel (hydroxypropylcellulose) (HPC) 93 % of control

Cc1nn(O)ccc1=N
inactive: dose: 56.25 mg/kg/injection, schedule: Q04DX002 (ip), vehicle: saline 104 % of control | dose: 112.5 mg/kg/injection, schedule: Q04DX002 (ip), vehicle: saline 96 % of control | dose: 225.0 mg/kg/injection, schedule: Q04DX002 (ip), vehicle: saline 101 % of control

Cc1ccc(/C(=N\N=C(N)N)c2ccccc2)cc1
inactive: dose: 15.0 mg/kg/injection, schedule: Q01DX Z (ip), vehicle: saline 108 % of control | dose: 30.0 mg/kg/injection, schedule: Q01DX Z (ip), vehicle: saline 110 % of control | dose: 30.0 mg/kg/injection, schedule: Q01DX Z (oral), vehicle: other 105 % of control | dose: 60.0 mg/kg/injection, schedule: Q01DX Z (ip), vehicle: saline 109 % of control | dose: 60.0 mg/kg/injection, schedule: Q01DX Z (oral), vehicle: other 95 % of control

CC1(C)/C(=C/c2ccccc2)C(=O)c2ccccc21
inactive: dose: 100.0 mg/kg/injection, schedule: Q01DX009 (ip), vehicle: saline 101 % of control | [1] 96 % of control | dose: 200.0 mg/kg/injection, schedule: Q01DX009 (ip), vehicle: saline 96 % of control | [2] 98 % of control | dose: 400.0 mg/kg/injection, schedule: Q01DX009 (ip), vehicle: saline 102 % of control | [3] 102 % of control

O=C(OCC(OC(=O)c1ccccc1)C(OC(=O)c1ccccc1)C(OC(=O)c1ccccc1)C(OC(=O)c1ccccc1)c1cnn(-c2ccccc2)n1)c1ccccc1 (centres undefined)
inactive: dose: 100.0 mg/kg/injection, schedule: Q04DX003 (ip), vehicle: acetone 87 % of control | dose: 200.0 mg/kg/injection, schedule: Q04DX003 (ip), vehicle: acetone 100 % of control | dose: 400.0 mg/kg/injection, schedule: Q04DX003 (ip), vehicle: acetone 90 % of control

Clc1ccc2nc(C(Cl)(Cl)Cl)[nH]c2c1
inactive: dose: 100.0 mg/kg/injection, schedule: Q04DX003 (ip), vehicle: saline with Tween-80 98 % of control | dose: 200.0 mg/kg/injection, schedule: Q04DX003 (ip), vehicle: saline with Tween-80 104 % of control | dose: 400.0 mg/kg/injection, schedule: Q04DX003 (ip), vehicle: saline with Tween-80 95 % of control

O=c1[nH]c2ccsc2c(=O)n1OS(=O)(=O)c1ccccc1
inactive: dose: 100.0 mg/kg/injection, schedule: Q01DX009 (ip), vehicle: Klucel (hydroxypropylcellulose) (HPC) 100 % of control | dose: 200.0 mg/kg/injection, schedule: Q01DX009 (ip), vehicle: Klucel (hydroxypropylcellulose) (HPC) 100 % of control | dose: 400.0 mg/kg/injection, schedule: Q01DX009 (ip), vehicle: Klucel (hydroxypropylcellulose) (HPC) 88 % of control

O=C(C1C(c2ccccc2)C1c1ccccc1)N(CCO)c1ccccc1 (centres undefined)
inactive: dose: 12.5 mg/kg/injection, schedule: Q04DX002 (ip), vehicle: saline 94 % of control | dose: 25.0 mg/kg/injection, schedule: Q04DX002 (ip), vehicle: saline 106 % of control | dose: 50.0 mg/kg/injection, schedule: Q04DX002 (ip), vehicle: saline 94 % of control

CC1(O)c2ccccc2-c2c1n([O-])c1ccccc1[n+]2=O (centres undefined)
inactive: dose: 100.0 mg/kg/injection, schedule: Q04DX003 (ip), vehicle: saline sonified 111 % of control | dose: 200.0 mg/kg/injection, schedule: Q04DX003 (ip), vehicle: saline sonified 100 % of control | dose: 400.0 mg/kg/injection, schedule: Q04DX003 (ip), vehicle: saline sonified 89 % of control

C#CCOCC(O)CCl (centres undefined)
inactive: dose: 75.0 mg/kg/injection, schedule: Q01DX001 (ip), vehicle: acetone 101 % of control | dose: 150.0 mg/kg/injection, schedule: Q01DX001 (ip), vehicle: acetone 92 % of control | dose: 300.0 mg/kg/injection, schedule: Q01DX001 (ip), vehicle: acetone 89 % of control

OCC(O)C(O)C(O)C(SCc1ccccc1)SCc1ccccc1 (centres undefined)
inactive: dose: 75.0 mg/kg/injection, schedule: Q04DX002 (ip), vehicle: saline with Tween-80 93 % of control | dose: 150.0 mg/kg/injection, schedule: Q04DX002 (ip), vehicle: saline with Tween-80 117 % of control | dose: 300.0 mg/kg/injection, schedule: Q04DX002 (ip), vehicle: saline with Tween-80 101 % of control

COc1ccc(Br)cc1/C=N\NS(=O)(=O)c1ccc(C)cc1
inactive: dose: 100.0 mg/kg/injection, schedule: Q01DX009 (ip), vehicle: other 100 % of control | [1] 96 % of control | dose: 200.0 mg/kg/injection, schedule: Q01DX009 (ip), vehicle: other 105 % of control | [2] 96 % of control | dose: 400.0 mg/kg/injection, schedule: Q01DX009 (ip), vehicle: other 114 % of control | [3] 93 % of control
